From US6355799B1, “Substituted benzene compounds, process for their preparation, and herbicidal and defoliant compositions containing them” (ISK Americas Incorporated, priority 1997, dated 2002)

Tests used:
Format in all cases: in vivo
[1] = system: barnyardgrass (Echinochloa crus-galli, ECHCG); test: Pre-emerge test, greenhouse herbicide activity screening; conditions: rated 14 days after application, 0 = no damage, 100 = complete death
Method in brief: (§1)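 Plants grown in 10 cm pots of sandy loam mix received acetone-dissolved compounds through a moving flat-fan nozzle. Doses ranged from 15 to 1000 g ai/ha. Pre-emerge pots were seeded one day earlier, post-emerge pots 8–21 days earlier. Fourteen days on, each pot was graded 0–100 for damage.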

[2] = system: sicklepod (Cassia obtusifolia, CASOB); test: as above; conditions: rated 14 days after application, 0 = no damage, 100 = complete death
Method in brief: as §1

[3] = system: ivyleaf morningglory (Ipomoea hederacea, IPOHE); test: as above; conditions: rated 14 days after application, 0 = no damage, 100 = complete death
Method in brief: as §1

[4] = system: lambsquarters (Chenopodium album, CHEAL); test: as above; conditions: rated 14 days after application, 0 = no damage, 100 = complete death
Method in brief: as §1

[5] = system: large crabgrass (Digitaria sanguinalis, DIGSA); test: as above; conditions: rated 14 days after application, 0 = no damage, 100 = complete death
Method in brief: as §1

[6] = system: velvetleaf (Abutilon theophrasti, ABUTH); test: as above; conditions: rated 14 days after application, 0 = no damage, 100 = complete death
Method in brief: as §1

[7] = system: johnsongrass (Sorghum halepense, SORHA); test: as above; conditions: rated 14 days after application, 0 = no damage, 100 = complete death
Method in brief: as §1

[8] = system: green foxtail (Setaria viridis, SETVI); test: as above; conditions: rated 14 days after application, 0 = no damage, 100 = complete death
Method in brief: as §1

[9] = system: redroot pigweed (Amaranthus retroflexus, AMARE); test: as above; conditions: rated 14 days after application, 0 = no damage, 100 = complete death
Method in brief: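 Rating: 0–100 visual injury, 14 DAA. Application: acetone, 187 l/ha, 15–1000 g ai/ha, flat-fan track sprayer with nozzle 40–45 cm above soil or canopy. Post-emerge runs used 0.25% v/v surfactant on 2–3 leaf plants.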

[10] = system: field corn (Zea mays L., var. Dekalb 535, CORN); test: Post-emerge test, crop safety; conditions: post-emerge, 14 days after application, rating scale 0-100
Method in brief: (§2)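 Each test used a mechanized track sprayer delivering 187 l/ha of acetone solution at 15–1000 g ai/ha. Post-emerge foliage at 2–3 leaves was treated with added 0.25% v/v non-ionic surfactant and bottom-watered only. Injury was assessed on day 14, where 100 means total kill.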

[11] = system: upland rice (Oryza sp., var. Tebonnet, RICE); test: Post-emerge test, crop safety; conditions: post-emerge, 14 days after application, rating scale 0-100
Method in brief: as §2

[12] = system: barnyardgrass (Echinochloa crus-galli, ECHCG); test: Post-emerge test, greenhouse herbicide activity screening; conditions: post-emerge, 14 days after application, rating scale 0-100
Method in brief: (§3)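 Applied at 15–1000 g ai/ha from acetone in 187 l/ha spray volume. Post-emergence applications included 0.25% v/v non-ionic surfactant and reached plants sown 8–21 days before. Pre-emergence applications were incorporated by surface watering. Efficacy or crop damage was rated on a 0–100 scale after 14 days.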

[13] = system: redroot pigweed (Amaranthus retroflexus, AMARE); test: as above; conditions: post-emerge, 14 days after application, rating scale 0-100
Method in brief: as §3

[14] = system: sicklepod (Cassia obtusifolia, CASOB); test: as above; conditions: post-emerge, 14 days after application, rating scale 0-100
Method in brief: as §3

[15] = system: ivyleaf morningglory (Ipomoea hederacea, IPOHE); test: as above; conditions: post-emerge, 14 days after application, rating scale 0-100
Method in brief: as §3

[16] = system: lambsquarters (Chenopodium album, CHEAL); test: as above; conditions: post-emerge, 14 days after application, rating scale 0-100
Method in brief: as §3

[17] = system: large crabgrass (Digitaria sanguinalis, DIGSA); test: as above; conditions: post-emerge, 14 days after application, rating scale 0-100
Method in brief: as §3

[18] = system: velvetleaf (Abutilon theophrasti, ABUTH); test: as above; conditions: post-emerge, 14 days after application, rating scale 0-100
Method in brief: as §3

[19] = system: johnsongrass (Sorghum halepense, SORHA); test: as above; conditions: post-emerge, 14 days after application, rating scale 0-100
Method in brief: as §3

[20] = system: green foxtail (Setaria viridis, SETVI); test: as above; conditions: post-emerge, 14 days after application, rating scale 0-100
Method in brief: as §3

[21] = system: field corn (Zea mays L., var. Dekalb 535, CORN); test: Pre-emerge test, crop safety; conditions: rated 14 days after application, 0 = no damage, 100 = complete death
Method in brief: as §3

[22] = system: upland rice (Oryza sp., var. Tebonnet, RICE); test: Pre-emerge test, crop safety; conditions: rated 14 days after application, 0 = no damage, 100 = complete death
Method in brief: as §3

Compound: COc1c(Cl)cc(F)c(-n2c(=O)cc(C(F)(F)F)n(C)c2=O)c1NC(=O)CCc1ccccc1 [2-86]
- Pre-emerge Herbicidal Activity, phytotoxicity rating (0-100), ECHCG ([1]; 63 g ai/ha): 95
- Pre-emerge Herbicidal Activity, phytotoxicity rating (0-100), ECHCG ([1]; 250 g ai/ha): 100
- Pre-emerge Herbicidal Activity, phytotoxicity rating (0-100), CASOB ([2]; 63 g ai/ha): 100
- Pre-emerge Herbicidal Activity, phytotoxicity rating (0-100), CASOB ([2]; 250 g ai/ha): 95
- Pre-emerge Herbicidal Activity, phytotoxicity rating (0-100), IPOHE ([3]; 63 g ai/ha): 90
- Pre-emerge Herbicidal Activity, phytotoxicity rating (0-100), IPOHE ([3]; 250 g ai/ha): 100
- Pre-emerge Herbicidal Activity, phytotoxicity rating (0-100), CHEAL ([4]; 63 g ai/ha): 100
- Pre-emerge Herbicidal Activity, phytotoxicity rating (0-100), CHEAL ([4]; 250 g ai/ha): 100
- Pre-emerge Herbicidal Activity, phytotoxicity rating (0-100), DIGSA ([5]; 63 g ai/ha): 100
- Pre-emerge Herbicidal Activity, phytotoxicity rating (0-100), DIGSA ([5]; 250 g ai/ha): 100
- Pre-emerge Herbicidal Activity, phytotoxicity rating (0-100), ABUTH ([6]; 63 g ai/ha): 100
- Pre-emerge Herbicidal Activity, phytotoxicity rating (0-100), ABUTH ([6]; 250 g ai/ha): 100
- Pre-emerge Herbicidal Activity, phytotoxicity rating (0-100), SORHA ([7]; 63 g ai/ha): 99
- Pre-emerge Herbicidal Activity, phytotoxicity rating (0-100), SORHA ([7]; 250 g ai/ha): 100
- Pre-emerge Herbicidal Activity, phytotoxicity rating (0-100), SETVI ([8]; 63 g ai/ha): 100
- Pre-emerge Herbicidal Activity, phytotoxicity rating (0-100), SETVI ([8]; 250 g ai/ha): 100
- Pre-emerge Herbicidal Activity, phytotoxicity rating (0-100), AMARE ([9]; 63 g ai/ha): 100
- Pre-emerge Herbicidal Activity, phytotoxicity rating (0-100), AMARE ([9]; 250 g ai/ha): 100
- phytotoxicity rating CORN ([10]; 63 g ai/ha): 90
- phytotoxicity rating CORN ([10]; 250 g ai/ha): 100
- phytotoxicity rating RICE ([11]; 63 g ai/ha): 80
- phytotoxicity rating RICE ([11]; 250 g ai/ha): 100
- phytotoxicity rating ECHCG ([12]; 63 g ai/ha): 90
- phytotoxicity rating ECHCG ([12]; 250 g ai/ha): 100
- phytotoxicity rating AMARE ([13]; 63 g ai/ha): 100
- phytotoxicity rating AMARE ([13]; 250 g ai/ha): 100
- phytotoxicity rating CASOB ([14]; 63 g ai/ha): 100
- phytotoxicity rating CASOB ([14]; 250 g ai/ha): 100
- phytotoxicity rating IPOHE ([15]; 63 g ai/ha): 100
- phytotoxicity rating IPOHE ([15]; 250 g ai/ha): 100
- phytotoxicity rating CHEAL ([16]; 63 g ai/ha): 100
- phytotoxicity rating CHEAL ([16]; 250 g ai/ha): 100
- phytotoxicity rating DIGSA ([17]; 63 g ai/ha): 30
- phytotoxicity rating DIGSA ([17]; 250 g ai/ha): 95
- phytotoxicity rating ABUTH ([18]; 63 g ai/ha): 100
- phytotoxicity rating ABUTH ([18]; 250 g ai/ha): 100
- phytotoxicity rating SORHA ([19]; 63 g ai/ha): 70
- phytotoxicity rating SORHA ([19]; 250 g ai/ha): 100
- phytotoxicity rating SETVI ([20]; 63 g ai/ha): 90
- phytotoxicity rating SETVI ([20]; 250 g ai/ha): 100
- Pre-emerge phytotoxicity rating (0-100), crop damage, CORN ([21]; 63 g ai/ha): 95
- Pre-emerge phytotoxicity rating (0-100), crop damage, CORN ([21]; 250 g ai/ha): 99
- Pre-emerge phytotoxicity rating (0-100), crop damage, RICE ([22]; 63 g ai/ha): 90
- Pre-emerge phytotoxicity rating (0-100), crop damage, RICE ([22]; 250 g ai/ha): 99

Compound: Cn1c(C(F)(F)F)cc(=O)n(-c2c(F)cc(Cl)c(OCC#N)c2NC(=O)CCc2ccccc2)c1=O [2-87]
- Pre-emerge Herbicidal Activity, phytotoxicity rating (0-100), ECHCG ([1]; 63 g ai/ha): 60
- Pre-emerge Herbicidal Activity, phytotoxicity rating (0-100), ECHCG ([1]; 250 g ai/ha): 90
- Pre-emerge Herbicidal Activity, phytotoxicity rating (0-100), CASOB ([2]; 63 g ai/ha): 100
- Pre-emerge Herbicidal Activity, phytotoxicity rating (0-100), CASOB ([2]; 250 g ai/ha): 100
- Pre-emerge Herbicidal Activity, phytotoxicity rating (0-100), IPOHE ([3]; 63 g ai/ha): 90
- Pre-emerge Herbicidal Activity, phytotoxicity rating (0-100), IPOHE ([3]; 250 g ai/ha): 100
- Pre-emerge Herbicidal Activity, phytotoxicity rating (0-100), CHEAL ([4]; 63 g ai/ha): 100
- Pre-emerge Herbicidal Activity, phytotoxicity rating (0-100), CHEAL ([4]; 250 g ai/ha): 100
- Pre-emerge Herbicidal Activity, phytotoxicity rating (0-100), DIGSA ([5]; 63 g ai/ha): 80
- Pre-emerge Herbicidal Activity, phytotoxicity rating (0-100), DIGSA ([5]; 250 g ai/ha): 100
- Pre-emerge Herbicidal Activity, phytotoxicity rating (0-100), ABUTH ([6]; 63 g ai/ha): 100
- Pre-emerge Herbicidal Activity, phytotoxicity rating (0-100), ABUTH ([6]; 250 g ai/ha): 100
- Pre-emerge Herbicidal Activity, phytotoxicity rating (0-100), SORHA ([7]; 63 g ai/ha): 50
- Pre-emerge Herbicidal Activity, phytotoxicity rating (0-100), SORHA ([7]; 250 g ai/ha): 85
- Pre-emerge Herbicidal Activity, phytotoxicity rating (0-100), SETVI ([8]; 63 g ai/ha): 90
- Pre-emerge Herbicidal Activity, phytotoxicity rating (0-100), SETVI ([8]; 250 g ai/ha): 100
- Pre-emerge Herbicidal Activity, phytotoxicity rating (0-100), AMARE ([9]; 63 g ai/ha): 100
- Pre-emerge Herbicidal Activity, phytotoxicity rating (0-100), AMARE ([9]; 250 g ai/ha): 100
- phytotoxicity rating CORN ([10]; 63 g ai/ha): 30
- phytotoxicity rating CORN ([10]; 250 g ai/ha): 80
- phytotoxicity rating RICE ([11]; 63 g ai/ha): 40
- phytotoxicity rating RICE ([11]; 250 g ai/ha): 75
- phytotoxicity rating ECHCG ([12]; 63 g ai/ha): 10
- phytotoxicity rating ECHCG ([12]; 250 g ai/ha): 50
- phytotoxicity rating AMARE ([13]; 63 g ai/ha): 100
- phytotoxicity rating AMARE ([13]; 250 g ai/ha): 100
- phytotoxicity rating CASOB ([14]; 63 g ai/ha): 40
- phytotoxicity rating CASOB ([14]; 250 g ai/ha): 100
- phytotoxicity rating IPOHE ([15]; 63 g ai/ha): 100
- phytotoxicity rating IPOHE ([15]; 250 g ai/ha): 100
- phytotoxicity rating CHEAL ([16]; 63 g ai/ha): 80
- phytotoxicity rating CHEAL ([16]; 250 g ai/ha): 90
- phytotoxicity rating DIGSA ([17]; 63 g ai/ha): 10
- phytotoxicity rating DIGSA ([17]; 250 g ai/ha): 50
- phytotoxicity rating ABUTH ([18]; 63 g ai/ha): 100
- phytotoxicity rating ABUTH ([18]; 250 g ai/ha): 100
- phytotoxicity rating SORHA ([19]; 63 g ai/ha): 10
- phytotoxicity rating SORHA ([19]; 250 g ai/ha): 50
- phytotoxicity rating SETVI ([20]; 63 g ai/ha): 30
- phytotoxicity rating SETVI ([20]; 250 g ai/ha): 40
- Pre-emerge phytotoxicity rating (0-100), crop damage, CORN ([21]; 63 g ai/ha): 5
- Pre-emerge phytotoxicity rating (0-100), crop damage, CORN ([21]; 250 g ai/ha): 75
- Pre-emerge phytotoxicity rating (0-100), crop damage, RICE ([22]; 63 g ai/ha): 40
- Pre-emerge phytotoxicity rating (0-100), crop damage, RICE ([22]; 250 g ai/ha): 90
